Patent US20090017006A1, “USE OF A COMPOUND FOR ENHANCING THE EXPRESSION OF MEMBRANE PROTEINS ON THE CELL SURFACE” (BIODEVELOPS PHARMA ENTWICKLUNG GMBH, priority 2005, published 2009)
“Also recorded” adds a separate entry of the source. Residues, ends and D or L forms follow the SMILES beside them. *: point of attachment. Cbz = O=C(OCc1ccccc1)*

Assays:
Format in all cases: cell-based
CFTR-ΔF508 [1] = experiment: FACS monitoring of expression of GFP-tagged CFTR-ΔF508 in HEK293 cells; conditions: for CFTR-ΔF508-associated fluorescence (expression level) versus control: 24 h
Description: (§1) Cultured HEK293 cells were transfected with plasmids encoding CFTR or CFTR-ΔF508 (GFP-tagged) and/or co-transfected with plasmids encoding USP4 (or an appropriate control plasmid) by using the CaPO4-precipitation method. Sixteen hours after transfection the cells were treated with varying concentrations of compounds. At a specific time point (here 24 h) the cells are trypsinized, fixed in ethanol, permeabilized and stained with propidium iodide (PI). The stained cells are subjected to FACS analysis
Because CFTR is tagged with a fluorescent protein, expression in individual cells can be monitored by fluorescence activated cell sorting (FACS). By contrast with fluorescence microscopy (where individual cells are picked), FACS allows to survey the entire cell population. In addition, FACS has the advantage that it allows for reasonable sample throughput; finally, automation and scale-up is readily possible.
The original data set is shown on the right hand side of the figures, respectively (see e.g. FIG. 2c): the x-axis is the propidium iodide fluorescence (note that the scale is linear). The y-axis is the GFP-fluorescence (=fluorescence associated with CFTR; note that the scale is logarithmic) and each dot corresponds to a cell. The quadrangle delineates the cells that express CFTR.

HEK293 cells = experiment: FACS propidium iodide staining: cell cycle distribution / apoptosis of transfected HEK293 cells
Description: as §1
Transiently transfected HE 293 cells were fixed in ethanol 24 h after transfection as mentioned above and then stained with propidium iodide to label the DNA: the rationale was to examine the distribution of cells in the cell cycle (=to see if the expression of CFTR or of CFTR-ΔF508 was toxic or if the compounds employed killed the cells/drove them into apoptosis).
One can plot the cell counts against the propidium iodide fluorescence of the transfected cells (such as shown in, for example, FIG. 2b): This gives a peak of cells (denoted by M1) that have a 2n content of DNA (G1-cells), a shoulder of cells that have a DNA content of larger than 2n (denoted by M3 and representing cells that are in S-phase) and a second peak of cells that have a DNA content of 4n (denoted by M2 and representing cells in G2 and M-phase).

CFTR-ΔF508 [2] = experiment: Immunoblot for GFP-tagged CFTR-ΔF508 expressed in HEK293 cells (endoglycosidase H treated extracts); parameters: accumulation of CFTR-ΔF508 (intensity of staining compared to control lane 4): unit of the concentration uncertain; conditions: for accumulation of CFTR-ΔF508 (intensity of staining compared to control lane 4): treated overnight (16 h)
Description: HEK293 cells (1*10^6 cells) were transfected with plasmids encoding CFTR or CFTR-ΔF508 (GFP-tagged) and/or co-transfected with effector plasmids. After 16 h, the cells were treated with the varying concentrations of compounds. After 24 h, the cells were harvested in phosphate-buffered saline, lysed by a freeze-thaw cycle and homogenized by sonication. The homogenate was resuspended in reducing Laemmli sample buffer (50 mM Tris.Hcl, pH 6.8, 20% glycerol, 0.1% bromophenol blue, 2% SDS and 20 mM dithiothreitol); aliquots (15% of the original culture) were resolved on a denaturing polyacrylamide gel (monomer concentration in the stacking gel and in the running gel 4 and 8% respectively) and electrophoretically transferred to a nitrocellulose membrane. Immunodetection was done with an antiserum directed against GFP as the primary antibody and an anti-rabbit IgG coupled to horseradish peroxidase as the secondary antibody.
In a first example, Membranes from transfected cells were prepared and immunoblotted for GFP-tagged CFTR or CFTR-ΔF508, respectively (by using an antibody directed against the fluorescent protein).
The membrane extract was also treated endoglycosidase H. The rationale for this experiment is as follows: membrane proteins are core glycosylated in the endoplasmatic reticulum. Core glycosylation is sensitive to endoglycosidase H. If the protein has reached the Golgi (and then trafficked to the plasma membrane), it acquires additional sugar moieties and becomes resistant to endoglycosidase H. It is evident from lane 3 in FIG. 1 that endoglycosidase H treatment reduces the apparent size of CFTR; thus, the bulk of the protein is still in the ER. The following lanes examine the expression of CFTR-ΔF508 (all extracts were treated with endoglycosidase H): lane 4 is the control, that is cells expressing CFTR-ΔF508; in lanes 5, 6, 7 and 8 cells expressing CFTR-ΔF508 were treated overnight (i.e. for 16 h) with 100 nM MG132, […], […] and 100 nM bortezomib, respectively.

[3] = cells cotransfected with plasmid driving expression of USP4

CC(C)C[C@@H](C=O)NC(=O)[C@H](CC(C)C)NC(=O)[C@H](CC(C)C)NC(=O)OCc1ccccc1 [MG132] (Cbz-Leu-Leu-Leu-aldehyde)
CFTR-ΔF508-expression (CFTR-ΔF508 [1]; 1 μg, HEK293 cells): enhances CFTR-ΔF508-expression | apoptotic effect (HEK293 cells; 1 μg, HEK293 cells): pronounced apoptotic effect

O=C1N[C@@H]2[C@@H](O)[C@@H](O)[C@H](O)[C@@H](CO)N2C1=O [kifunensine]
accumulation of CFTR-ΔF508 (intensity of staining compared to control lane 4) (CFTR-ΔF508 [2]; 20 (unit uncertain)): led to the accumulation of CFTR-ΔF508

CC(C)C[C@H](NC(=O)[C@H](Cc1ccccc1)NC(=O)c1cnccn1)B(O)O [Bortezomib, N-(2-pyrazine)carbonyl-L-phenylalanine-L-leucine-boronic acid]
CFTR-ΔF508-associated fluorescence (expression level) versus control (CFTR-ΔF508 [1]; 10 nM, HEK293 cells): expression of CFTR is increased; also recorded: substantially increases the level of CFTR-ΔF508 | CFTR-ΔF508-associated fluorescence (expression level) versus control (CFTR-ΔF508 [1]; 100 nM, HEK293 cells): expression of CFTR is increased | cell cycle distribution of CFTR-ΔF508 expressing cells versus control (HEK293 cells; 10 nM, HEK293 cells): essentially the same as the one shown in control cells | number of cells with low propidium iodide fluorescence (apoptotic cells) (HEK293 cells; 100 nM, HEK293 cells): number of cells with low propidium iodide fluorescence increases | peak of the G1-cells (M1) in cell cycle distribution (HEK293 cells; 100 nM, HEK293 cells): greatly reduced | number of cells with low propidium iodide fluorescence (apoptotic cells) (HEK293 cells; 1 μM, HEK293 cells): number of cells with low propidium iodide fluorescence increases | peak of the G1-cells (M1) in cell cycle distribution (HEK293 cells; 1 μM, HEK293 cells): greatly reduced | relative effectiveness in accumulation of CFTR-ΔF508, 100 nM versus 1 μM (CFTR-ΔF508 [2]; 100 nM compared with 1 μM, 16 h): more effective than 1 μM bortezomib | accumulation of CFTR-ΔF508 (intensity of staining compared to control lane 4) (CFTR-ΔF508 [2]; 100 nM): led to the accumulation of CFTR-ΔF508 | accumulation of CFTR-ΔF508 (intensity of staining compared to control lane 4) (CFTR-ΔF508 [2]; 1 (unit uncertain)): led to the accumulation of CFTR-ΔF508

USP-4: deubiquitinating enzyme (ubiquitin specific protease), co-expressed in cells from a transfected plasmid
CFTR-ΔF508-associated fluorescence versus control (CFTR-ΔF508 [1]; [3]): CFTR-ΔF508-associated fluorescence increases | toxicity / apoptosis (cell cycle distribution, sub-2n fraction) (HEK293 cells; [3]): not toxic and does not cause apoptosis
